Drawing on patent EP0256847B1, “Oxytocin and vasopressin antagonists” (Merck & Co., Inc., priority 1986, dated 1988), this text covers IC50 for 2 molecules.

Molecules are shown by their SMILES. *1 amine or outer side, *2 acyl side, *3 side chain or, on linkers, in order; H or OH if unused. Where a SMILES comes first, the peptide text is derived from it. [ ]: non-standard residue; d: D form. ξ: configuration not given here. X2 = O=C([C@@H]1CCCNN1[*:1])[*:2]; ξN(OH)Ile(3ξ) = CCC(C)C(NO)C(=O)O; X1 = O=C([C@H]1CCCNN1[*:1])[*:2]; dNMeF = CN[C@H](Cc1ccccc1)C(=O)O; NMeF = CN[CH](Cc1ccccc1)C(=O)O; X3 = O=C(C1CCCNN1[*:1])[*:2]

The experiment addresses oxytocin receptor. As to the kind of experiment: [³H]Oxytocin binding assay, crude membrane preparation of rat uterus. Conditions: concentration of test compound to inhibit [³H]oxytocin binding by 50%; rat uterus membranes; read-out: IC₅₀ [³H]OT (uterus). From the text: Oxytocin receptors have been identified in mammalian uterine tissue through the use of in vitro radioligand binding assays. These receptor binding sites mediate the contractile response of the uterine myometrium to oxytocin. […] The assay uses a crude membrane preparation of rat uterus as the source of oxytocin receptors. […]

Regarding `CCC(C)C1C(=O)N2NCCCC2C(=O)N2NCCCC2C(=O)N(C)C(Cc2ccccc2)C(=O)N2CCCC2C(=O)NC(Cc2ccccc2)C(=O)N1O` (centres unmarked) [Formula I] (cyclo([ξN(OH)Ile(3ξ)][X3][X3][NMeF]PF); configuration not given here), the IC50 is 370 ± 70 nM. Turning to `CC[C@H](C)[C@@H]1NC(=O)[C@@H](Cc2ccccc2)NC(=O)[C@@H]2CCCN2C(=O)[C@@H](Cc2ccccc2)N(C)C(=O)[C@@H]2CCCNN2C(=O)[C@H]2CCCNN2C1=O` [Example 9] (cyclo([X1][X2][dNMeF]P[dF]I)), the IC50 was found to be 170 ± 15 nM.
